Experimental data published in ChEMBL document CHEMBL2057206, “Symmetrical approach of spiro-pyrazolidinediones as acetyl-CoA carboxylase inhibitors” (Bioorg Med Chem Lett, 2012).
Activity calls are given as the source filed them. The calls are words filed in the database; no cut-off is given here.

Columns and labels:
Acetyl-CoA carboxylase 1 [1] = target: Acetyl-CoA carboxylase 1 (Homo sapiens, UniProt Q13085); test: Inhibition of human ACC1 using acetyl-coA as substrate incubated for 60 mins prior to substrate addition measured after 20 mins by malachite green assay
[2] = Clearance in human liver microsomes assessed per mg of protein; format: ADME, Microsome; conditions: read-out: CLH
Acetyl-CoA carboxylase 2 = Acetyl-CoA carboxylase 2 (Homo sapiens, UniProt O00763); test: Inhibition of human ACC2 using acetyl-coA as substrate incubated for 60 mins prior to substrate addition measured after 20 mins by malachite green assay
Acetyl-CoA carboxylase 2, sequence (O00763 whole entry): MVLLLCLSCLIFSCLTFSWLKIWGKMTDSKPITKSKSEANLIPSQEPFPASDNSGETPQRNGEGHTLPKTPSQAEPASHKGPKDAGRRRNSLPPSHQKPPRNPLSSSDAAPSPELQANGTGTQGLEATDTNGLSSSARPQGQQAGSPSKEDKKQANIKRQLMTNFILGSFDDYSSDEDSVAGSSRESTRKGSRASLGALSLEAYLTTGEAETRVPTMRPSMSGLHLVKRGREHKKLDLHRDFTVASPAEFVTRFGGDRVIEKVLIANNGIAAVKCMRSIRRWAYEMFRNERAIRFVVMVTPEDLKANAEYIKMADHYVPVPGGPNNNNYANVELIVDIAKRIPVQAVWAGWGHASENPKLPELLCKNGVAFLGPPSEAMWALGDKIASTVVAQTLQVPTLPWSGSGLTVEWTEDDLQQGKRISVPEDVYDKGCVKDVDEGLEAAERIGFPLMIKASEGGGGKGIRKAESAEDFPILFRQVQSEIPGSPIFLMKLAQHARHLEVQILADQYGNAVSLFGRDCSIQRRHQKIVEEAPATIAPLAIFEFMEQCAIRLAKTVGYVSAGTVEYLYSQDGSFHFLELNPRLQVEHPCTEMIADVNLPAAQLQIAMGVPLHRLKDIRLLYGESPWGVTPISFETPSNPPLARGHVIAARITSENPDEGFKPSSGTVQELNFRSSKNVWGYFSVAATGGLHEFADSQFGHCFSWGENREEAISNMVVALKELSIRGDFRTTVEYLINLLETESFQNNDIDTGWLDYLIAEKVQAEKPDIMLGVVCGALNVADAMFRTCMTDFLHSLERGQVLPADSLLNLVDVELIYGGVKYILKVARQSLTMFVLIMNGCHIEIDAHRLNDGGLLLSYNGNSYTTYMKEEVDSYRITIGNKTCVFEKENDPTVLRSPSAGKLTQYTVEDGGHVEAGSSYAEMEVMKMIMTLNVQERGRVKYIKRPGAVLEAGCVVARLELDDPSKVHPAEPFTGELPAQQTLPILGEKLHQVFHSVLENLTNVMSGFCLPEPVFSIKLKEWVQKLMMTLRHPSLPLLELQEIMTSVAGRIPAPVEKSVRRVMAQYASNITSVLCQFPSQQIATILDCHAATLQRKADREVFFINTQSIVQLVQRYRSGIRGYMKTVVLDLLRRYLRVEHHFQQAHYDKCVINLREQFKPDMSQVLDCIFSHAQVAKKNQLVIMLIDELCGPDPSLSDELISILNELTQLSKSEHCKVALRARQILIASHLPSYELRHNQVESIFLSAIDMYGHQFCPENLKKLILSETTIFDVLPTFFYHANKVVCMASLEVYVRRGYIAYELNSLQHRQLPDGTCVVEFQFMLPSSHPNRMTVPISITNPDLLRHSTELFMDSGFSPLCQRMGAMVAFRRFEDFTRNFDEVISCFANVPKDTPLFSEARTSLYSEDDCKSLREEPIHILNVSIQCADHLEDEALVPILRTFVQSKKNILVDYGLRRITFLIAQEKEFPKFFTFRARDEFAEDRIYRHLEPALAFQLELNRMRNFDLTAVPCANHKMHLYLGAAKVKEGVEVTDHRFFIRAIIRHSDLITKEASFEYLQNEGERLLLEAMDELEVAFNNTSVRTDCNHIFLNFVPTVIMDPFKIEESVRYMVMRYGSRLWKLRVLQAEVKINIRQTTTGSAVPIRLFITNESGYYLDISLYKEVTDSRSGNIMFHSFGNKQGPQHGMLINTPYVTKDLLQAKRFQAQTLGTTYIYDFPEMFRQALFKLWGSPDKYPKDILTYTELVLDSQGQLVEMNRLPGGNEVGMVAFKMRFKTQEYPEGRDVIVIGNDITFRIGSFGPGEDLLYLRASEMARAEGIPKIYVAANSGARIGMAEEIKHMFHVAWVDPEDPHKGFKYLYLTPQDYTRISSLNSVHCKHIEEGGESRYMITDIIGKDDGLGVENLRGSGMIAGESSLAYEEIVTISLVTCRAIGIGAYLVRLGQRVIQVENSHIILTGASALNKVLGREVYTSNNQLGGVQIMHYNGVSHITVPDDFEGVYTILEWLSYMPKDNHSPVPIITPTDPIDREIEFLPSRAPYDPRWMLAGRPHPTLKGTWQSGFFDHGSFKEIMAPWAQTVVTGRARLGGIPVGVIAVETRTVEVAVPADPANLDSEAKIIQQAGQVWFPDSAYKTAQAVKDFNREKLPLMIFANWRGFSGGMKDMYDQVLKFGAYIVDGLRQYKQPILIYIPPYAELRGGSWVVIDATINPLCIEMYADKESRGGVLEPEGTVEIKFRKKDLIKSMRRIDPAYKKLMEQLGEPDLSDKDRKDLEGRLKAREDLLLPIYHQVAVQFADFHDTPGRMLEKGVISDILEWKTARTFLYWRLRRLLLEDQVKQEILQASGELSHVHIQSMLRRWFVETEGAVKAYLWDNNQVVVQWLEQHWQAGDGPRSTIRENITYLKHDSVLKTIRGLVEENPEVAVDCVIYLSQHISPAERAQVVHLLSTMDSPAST

[3] = Lipophilicity, log D of the compound by HPLC analysis at pH 7; format: physicochemical; conditions: buffer
Rattus norvegicus [4] = test: Antidyslipidemic activity in Wistar fatty rat assessed as reduction in respiratory quoteint at 1 mg/kg, po after 3 hrs; format: functional, organism-based; design: dose 1 mg/kg
[5] = Inhibition of rat ACC2
Acetyl-CoA carboxylase 1 [6] = target: Acetyl-CoA carboxylase 1 (Rattus norvegicus, UniProt P11497); test: Inhibition of rat ACC1
Rattus norvegicus [7] = test: Antidyslipidemic activity in po dosed Wistar fatty rat assessed as reduction in respiratory quoteint after 3 hrs; format: functional, organism-based

CCN1C(=O)C2(CCCN(C3CCN(C(=O)c4c(NC(=O)NC)sc5ccccc45)CC3)C2)C(=O)N1CC
IC50 (Acetyl-CoA carboxylase 1 [1]): 41 nM
microsomal CLint [2]: 120 µL/min/mg
IC50 (Acetyl-CoA carboxylase 2): 8.1 nM
logD [3]: 2.33

CNC(=O)Nc1sc2c(OC)cccc2c1C(=O)N1CCC(N2CCCC3(C2)C(=O)N2CCCCN2C3=O)CC1
IC50 (Acetyl-CoA carboxylase 1 [1]): 25 nM
microsomal CLint [2]: 6 µL/min/mg
IC50 (Acetyl-CoA carboxylase 2): 6.1 nM
logD [3]: 2.08

CCNC(=O)Nc1sc2ccccc2c1C(=O)N1CCC(N2CCCC3(C2)C(=O)N2CCCCN2C3=O)CC1
IC50 (Acetyl-CoA carboxylase 1 [1]): 130 nM
microsomal CLint [2]: 18 µL/min/mg
IC50 (Acetyl-CoA carboxylase 2): 23 nM
logD [3]: 2.45

CCNC(=O)Nc1sc2c(OC)cccc2c1C(=O)N1CCC(N2CCCC3(C2)C(=O)N2CCCCN2C3=O)CC1
IC50 (Acetyl-CoA carboxylase 1 [1]): 21 nM
Activity (Rattus norvegicus [4]): Active
microsomal CLint [2]: 35 µL/min/mg
IC50 (Acetyl-CoA carboxylase 2): 4.9 nM
logD [3]: 2.33
IC50 [5]: 13 nM
IC50 (Acetyl-CoA carboxylase 1 [6]): 28 nM
Activity (Rattus norvegicus [7]): Dose-dependent effect

CNC(=O)Nc1sc2ccccc2c1C(=O)N1CCC(N2CCCC3(C2)C(=O)N2CCCCN2C3=O)CC1
IC50 (Acetyl-CoA carboxylase 1 [1]): 200 nM
microsomal CLint [2]: 12 µL/min/mg
IC50 (Acetyl-CoA carboxylase 2): 36 nM
logD [3]: 2.14

CNC(=O)Nc1sc2ccccc2c1C(=O)N1CCC(N2CCCC3(C2)C(=O)N2CCCCCN2C3=O)CC1
IC50 (Acetyl-CoA carboxylase 1 [1]): 48 nM
microsomal CLint [2]: 71 µL/min/mg
IC50 (Acetyl-CoA carboxylase 2): 8.7 nM
logD [3]: 2.14

CCNC(=O)Nc1sc2ccccc2c1C(=O)N1CCC(N2CCCC3(C2)C(=O)N2CCCCCCN2C3=O)CC1
IC50 (Acetyl-CoA carboxylase 1 [1]): 22 nM
microsomal CLint [2]: 200 µL/min/mg
IC50 (Acetyl-CoA carboxylase 2): 5.1 nM
logD [3]: 2.73

CCNC(=O)Nc1sc2ccccc2c1C(=O)N1CCC(N2CCCC3(C2)C(=O)N2CCCN2C3=O)CC1
IC50 (Acetyl-CoA carboxylase 1 [1]): 170 nM
microsomal CLint [2]: 25 µL/min/mg
IC50 (Acetyl-CoA carboxylase 2): 33 nM
logD [3]: 1.93

COc1cccc2c(C(=O)N3CCC(N4CCCC5(C4)C(=O)N4CCCCN4C5=O)CC3)c(NC(N)=O)sc12
IC50 (Acetyl-CoA carboxylase 1 [1]): 22 nM
microsomal CLint [2]: 15 µL/min/mg
IC50 (Acetyl-CoA carboxylase 2): 5.9 nM
logD [3]: 1.76

CCNC(=O)Nc1sc2ccccc2c1C(=O)N1CCC(N2CCCC3(C2)C(=O)N2CCCCCN2C3=O)CC1
IC50 (Acetyl-CoA carboxylase 1 [1]): 43 nM
microsomal CLint [2]: 100 µL/min/mg
IC50 (Acetyl-CoA carboxylase 2): 7.5 nM
logD [3]: 2.48

CCNC(=O)Nc1sc2ccccc2c1C(=O)N1CCC(N2CCCC3(C2)C(=O)N(C)N(C)C3=O)CC1
IC50 (Acetyl-CoA carboxylase 1 [1]): 120 nM
microsomal CLint [2]: 12 µL/min/mg
IC50 (Acetyl-CoA carboxylase 2): 20 nM
logD [3]: 2.03
